Laboratory results as given in BindingDB's records for patent US20250313563 (The Broad Institute, 2025).
Several values for one entry are separate records, joined by “and”; a condition that tells them apart may be missing. Equal entries are not always repeated.

Tests used:
[1] = biological target: Glycogen synthase kinase-3 beta (Homo sapiens, UniProt P49841); test: TR-FRET Assay
Procedure, shortened: (§1)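 Kinase activity, measured after a 30-minute compound preincubation, was stopped with EDTA and quantified by TR-FRET using a Tb-labelled pSer641 antibody paired with streptavidin-d2.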

[2] = biological target: Glycogen synthase kinase-3 alpha (Homo sapiens, UniProt P49840); test: TR-FRET Assay
Procedure, shortened: as §1

Chain of Glycogen synthase kinase-3 beta (P49841 whole entry): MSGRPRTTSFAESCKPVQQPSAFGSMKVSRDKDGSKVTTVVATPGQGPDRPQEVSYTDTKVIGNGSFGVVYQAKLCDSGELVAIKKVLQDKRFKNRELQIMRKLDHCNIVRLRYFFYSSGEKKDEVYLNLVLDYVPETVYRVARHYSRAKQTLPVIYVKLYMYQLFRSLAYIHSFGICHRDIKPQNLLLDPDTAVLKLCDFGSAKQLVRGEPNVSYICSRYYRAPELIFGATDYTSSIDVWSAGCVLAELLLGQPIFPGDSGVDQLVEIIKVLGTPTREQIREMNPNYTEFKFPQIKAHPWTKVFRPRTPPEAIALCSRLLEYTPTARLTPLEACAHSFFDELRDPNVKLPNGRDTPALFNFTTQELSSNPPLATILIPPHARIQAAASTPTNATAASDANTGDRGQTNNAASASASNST
Chain of Glycogen synthase kinase-3 alpha (P49840 whole entry): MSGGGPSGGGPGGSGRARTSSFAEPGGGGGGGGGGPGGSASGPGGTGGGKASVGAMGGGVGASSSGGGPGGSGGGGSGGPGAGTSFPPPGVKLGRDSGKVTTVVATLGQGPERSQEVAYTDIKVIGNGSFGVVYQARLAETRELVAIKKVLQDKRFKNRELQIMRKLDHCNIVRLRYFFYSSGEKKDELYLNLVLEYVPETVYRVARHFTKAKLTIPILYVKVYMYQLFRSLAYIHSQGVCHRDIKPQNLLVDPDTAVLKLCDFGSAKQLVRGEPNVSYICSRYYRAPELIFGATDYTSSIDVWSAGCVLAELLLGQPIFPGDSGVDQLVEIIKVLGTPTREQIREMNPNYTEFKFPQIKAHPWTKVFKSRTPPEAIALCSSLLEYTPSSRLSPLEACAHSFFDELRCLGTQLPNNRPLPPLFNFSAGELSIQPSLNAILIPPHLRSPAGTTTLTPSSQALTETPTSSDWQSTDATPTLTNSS

Row | IC50 [1] | IC50 [2] | Structure (SMILES)
1 | 1000 to 5000 nM | 100 to 1000 nM | CCn1nc(C)c(S(=O)(=O)N2CCC3(CC2)C2=C(N=NC2)NC2=C3C(=O)CC(C)(C)C2)c1C [US20250313563, Compound 945679]
2 | > 5000 nM | > 5000 nM | CC[C@]1(c2cccc(-c3ccnc4ccccc34)c2)C2=CN=NC2NC2=C1C(=O)CC(C)(C)C2 (some centres undefined) [US20250313563, Compound 944034]
3 | > 5000 nM | 1000 to 5000 nM | CC[C@@]1(c2ccccc2)C2=CN=NC2NC2=C1C(=O)C[C@]1(CCNC1=O)C2 (some centres undefined) [US20250313563, Compound 950160]
4 | 100 to 1000 nM | < 100 nM | CCc1cc(-c2cccc([C@]3(CC)C4=CN=NC4NC4=C3C(=O)NC(C)(C)C4)c2)ccn1 (some centres undefined) [US20250313563, Compound 948370]
5 | < 100 nM and 1000 to 5000 nM | < 100 nM and 100 to 1000 nM | CC[C@@]1(c2cccc(-c3ccncc3)c2)C2=CN=NC2NC2=C1C(=O)CC(C)(C)[C@H]2F (some centres undefined) [US20250313563, Compound 959343]
6 | 100 to 1000 nM | 100 to 1000 nM | CC1(C)CC(=O)C2=C(C1)NC1N=NC(CCC(F)(F)F)=C1C21CCc2c(F)cccc21 (centres undefined) [US20250313563, Compound 841868]
7 | 1000 to 5000 nM | 100 to 1000 nM | CCC1(c2cccc(Br)c2)C2=C(N=NC2)NC2=C1C(=O)C(C)(C)C2 (centres undefined) [US20250313563, Compound 949805]
8 | < 100 nM and 1000 to 5000 nM | < 100 nM | CC[C@]1(c2cccc(-c3cn(C)nc3C)c2)C2=CN=NC2NC2=C1C(=O)NC1(CCCC1)C2 (some centres undefined) [US20250313563, Compound 950252]
9 | 100 to 1000 nM | < 100 nM | CCC1(c2cccc(-c3cn(C)nc3C(C)C)c2)C2=C(CC(C)(C)CC2=O)NC2N=NC(C)=C21 (centres undefined) [US20250313563, Compound 883998]
10 | > 5000 nM | > 5000 nM | CC1N=NC2=C1C1(CC3(CCC3)C1)C1=C(CC(C)(C)CC1=O)N2 (centres undefined) [US20250313563, Compound 877295]
11 | > 1670 nM | 1000 to 5000 nM | CC1(C)CC(=O)C2=C(C1)NC1=C(CN=N1)C2(C)C [US20250313563, Compound 786065]
12 | < 100 nM | < 100 nM | CC1(C)CC(=O)C2=C(C1)NC1=C(CN=N1)[C@]21C[C@H](n2cccn2)C1 [US20250313563, Compound 884005]
13 | < 100 nM | < 100 nM | CCc1ncc(S(=O)(=O)N2CCC3(CC2)C2=C(N=NC2)NC2=C3C(=O)CC(C)(C)C2)s1 [US20250313563, Compound 947252]
14 | < 100 nM | < 100 nM | COCCn1cc(S(=O)(=O)N2CCC3(CC2)C2=C(N=NC2)NC2=C3C(=O)CC(C)(C)C2)cn1 [US20250313563, Compound 947477]
15 | < 100 nM | < 100 nM | Cc1cccc(S(=O)(=O)N2CCC3(CC2)C2=C(N=NC2)NC2=C3C(=O)CC(C)(C)C2)c1 [US20250313563, Compound 947261]
16 | < 100 nM | < 100 nM | CC[C@]1(c2cccc(OCC(F)F)c2)C2=CN=NC2NC2=C1C(=O)CC(C)(C)C2 (some centres undefined) [US20250313563, Compound 949104]
17 | 100 to 1000 nM | < 100 nM | CC[C@]1(c2cccc(C(F)(F)F)c2)C2=C(CC(C)(C)NC2=O)NC2N=NC(F)=C21 (some centres undefined) [US20250313563, Compound 957518]
18 | 100 to 1000 nM | < 100 nM | CCC1(c2cccc(Br)c2)C2=C(N=NC2)NC2=C1C(=O)CC(C)(C)C2 (centres undefined) [US20250313563, Compound 789312]
19 | 100 to 1000 nM | 100 to 1000 nM | CCC1(c2cccc(Cc3ncccc3C(F)(F)F)c2)C2=CN=NC2NC2=C1C(=O)CC(C)(C)C2 (centres undefined) [US20250313563, Compound 947548]
20 | < 100 nM | < 100 nM | CCN(c1cccnc1)c1cccc(C2(CC)C3=CN=NC3NC3=C2C(=O)CC(C)(C)C3)c1 (centres undefined) [US20250313563, Compound 885331]
21 | 1000 to 5000 nM | 100 to 1000 nM | CCC1(c2ccccc2)C2=C(N=NC2)NC2=C1C(=O)CC1(CC1)C2 (centres undefined) [US20250313563, Compound 789330]
22 | 100 to 1000 nM | 100 to 1000 nM | CCC1(c2cccc(-c3ccnc(OC(C)C)c3)c2)C2=CN=NC2NC2=C1C(=O)CC(C)(C)C2 (centres undefined) [US20250313563, Compound 932626]
